Numbered stars: 1 amine (or outer) side, 2 acyl side, 3 side chain; on linkers, the order of the positions; unused ones are H or OH. Square brackets hold non-standard residues; d marks the D form. Peptide text beside a SMILES is read from it. * marks the point of attachment. DOTA = O=C(O)CN1CCN(CC(=O)O)CCN(CC(=O)*)CCN(CC(=O)O)CC1; d(γGlu) = O=C(O)[C@@H](CCC(=O)[*:2])N[*:1]; 1Nal = N[C@@H](Cc1cccc2ccccc12)C(=O)O; NMeNle = CCCC[C@H](NC)C(=O)O; PEG4 = NCCOCCOCCOCCOCCC(=O)O
Test system: AR42J tumor-bearing mice
Experiment: in vivo
Set-up: species or system BALB/c nude mice
Settings: mouse, 1 h
Procedure: To complement the imaging studies, biodistribution experiments were performed. AR42J tumor-bearing mice were intravenously injected with 3.7 MBq of [^68Ga]Ga-DOTA-CCK2R-dimer (≈ 120 pmol) or [^68Ga]Ga-DOTA-CCK-66 (≈ 210 pmol) (dissolved in 200 μL of saline; n = 3/group). The mice were sacrificed at 30, 60, and 120 min post-injection, and the tissues of interest were excised, weighed, and analyzed for radioactivity using a γ-counter. For blocking studies, a 400-fold excess of the lead compound was co-administered, and the mice were sacrificed at 1 h post-injection.
All animal studies were approved by the Ethics Committee of Fudan University
Shanghai Cancer Center (No. FUSCC-IACUC- S2023- 0003). Five-week-old female
BALB/c nude mice were purchased from Shanghai SLAC Laboratory Animal
Company. To establish cell-derived xenograft (CDX) models, 1 × 10⁶ AR42J cells
(100 μL) were subcutaneously inoculated into the right shoulder of each mouse. […]

Bladder uptake: 1.15 ± 1.21 %ID/g
Kidney uptake: 12.68 ± 3.71 %ID/g
Liver uptake: 0.96 ± 0.26 %ID/g
Stomach uptake: 1.49 ± 0.64 %ID/g
SMILES: CCCC[C@@H](C(=O)N[C@@H](CC(=O)O)C(=O)N[C@@H](Cc1cccc2ccccc12)C(N)=O)N(C)C(=O)[C@H](Cc1c[nH]c2ccccc12)NC(=O)CCOCCOCCOCCOCCNC(=O)CC[C@@H](NC(=O)CN1CCN(CC(=O)O)CCN(CC(=O)O)CCN(CC(=O)O)CC1)C(=O)O [[68Ga]Ga-DOTA-CCK-66, metal not drawn, reference compound] ({DOTA-d(γGlu)-PEG4}-W[NMeNle]D[1Nal]-NH2)

— article PMC12439480, “Dimeric CCK2R radiotheranostic tracers synergize with mTOR inhibition for enhanced tumor therapy” (Theranostics, 2025)
